According to ChEMBL document CHEMBL1201862, “PubChem BioAssay data set” (2004):
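Test compounds were applied to cells in 96-well plates for 48 hours at 5 doses. Abbreviation: GI50, concentration required for 50% inhibition of growth.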 Calls of active or inactive are those of the source. No stated cut-off is given here; in the data, active = GI50 up to about 1.1 µM and inactive = higher.

Legend:
Assay in all cases: inhibition of tumour cell growth, NCI panel, 48 h
[1] = system: OVCAR-3
[2] = system: SNB-19
[3] = system: 786-0
[4] = system: NCI-H226
[5] = system: SF-295
[6] = system: OVCAR-8
[7] = system: NCI-H460
[8] = system: DMS-273
[9] = system: OVCAR-5
[10] = system: DMS-114
[11] = system: UACC-62
[12] = system: UACC-257
[13] = system: HCT-15
[14] = system: SK-MEL-28
[15] = system: SNB-78
[16] = system: NCI-H522
[17] = system: TK-10
[18] = system: CCRF-CEM
[19] = system: KM-20L2
[20] = system: LOX IMVI
[21] = system: EKVX
[22] = system: NCI-H23
[23] = system: Malme-3M
[24] = system: CAKI-1
[25] = system: COLO 205
[26] = system: M14
[27] = system: HT-29
[28] = system: SF-539
[29] = system: HOP-92
[30] = system: SR
[31] = system: U-251
[32] = system: HOP-18
[33] = system: ACHN
[34] = system: IGROV-1
[35] = system: SW-620
[36] = system: SN12C
[37] = system: SNB-75
[38] = system: DLD-1
[39] = system: KM12
[40] = system: OVCAR-4
[41] = system: SK-OV-3
[42] = system: RXF 393
[43] = system: XF498
[44] = system: M19-MEL
[45] = system: SF-268
[46] = system: HCT-116
[47] = system: SK-MEL-2
[48] = system: HL-60
[49] = system: MOLT-4
[50] = system: UO-31
[51] = system: A549
[52] = system: HCC 2998
[53] = system: HOP-62
[54] = system: LXFL 529
[55] = system: K562
[56] = system: RPMI-8226
[57] = system: SK-MEL-5

## COc1ccc(/C=C/C(=N\NC(=O)c2ccccc2)c2sc(Nc3ccc([N+](=O)[O-])cc3)nc2C)cc1OC
[1]
  GI50: 23.3 µM (inactive)
[2]
  GI50: 12.4 µM (inactive)
[3]
  GI50: 10.5 µM (inactive)
[4]
  GI50: 18.2 µM (inactive)
[5]
  GI50: 11.2 µM (inactive)
[6]
  GI50: 9.57 µM (inactive)
[7]
  GI50: 16.5 µM (inactive)
[8]
  GI50: 12.5 µM (inactive)
[9]
  GI50: 27.7 µM (inactive)
[10]
  GI50: 15.1 µM (inactive)
[11]
  GI50: 2.75 µM (inactive)
[12]
  GI50: 12.6 µM (inactive)
[13]
  GI50: 7.89 µM
[14]
  GI50: 21.1 µM (inactive)
[15]
  GI50: 8.55 µM (inactive)
[16]
  GI50: 4.24 µM (inactive)
[17]
  GI50: 29.3 µM (inactive)
[18]
  GI50: 2.34 µM (inactive)
[19]
  GI50: 8.67 µM (inactive)
[20]
  GI50: 3.75 µM (inactive)
[21]
  GI50: 18.6 µM (inactive)
[22]
  GI50: > 10 µM (inactive)
[23]
  GI50: 19.2 µM (inactive)
[24]
  GI50: 17.7 µM (inactive)
[25]
  GI50: 21.3 µM (inactive)
[26]
  GI50: 14.1 µM (inactive)
[27]
  GI50: 17 µM (inactive)
[28]
  GI50: 21.1 µM (inactive)
[29]
  GI50: < 0.01 µM (active)
[30]
  GI50: 5.18 µM (inactive)
[31]
  GI50: 5.3 µM (inactive)
[32]
  GI50: 27.7 µM (inactive)
[33]
  GI50: 14.7 µM (inactive)
[34]
  GI50: > 10 µM (inactive)
[35]
  GI50: 16 µM (inactive)
[36]
  GI50: 13.9 µM (inactive)
[37]
  GI50: 5.57 µM (inactive)
[38]
  GI50: 6.27 µM (inactive)
[39]
  GI50: 7.73 µM (inactive)
[40]
  GI50: 11.6 µM (inactive)
[41]
  GI50: 45.8 µM (inactive)
[42]
  GI50: 12.9 µM (inactive)
[43]
  GI50: 10.3 µM (inactive)
[44]
  GI50: 12.6 µM (inactive)
[45]
  GI50: 13.2 µM (inactive)
[46]
  GI50: 7.31 µM (inactive)
[47]
  GI50: 15.9 µM (inactive)
[48]
  GI50: 2.62 µM (inactive)
[49]
  GI50: 2.77 µM (inactive)
[50]
  GI50: 15.6 µM (inactive)
[51]
  GI50: 10.6 µM (inactive)
[52]
  GI50: 29.6 µM (inactive)
[53]
  GI50: 18.2 µM (inactive)
[54]
  GI50: 7.67 µM (inactive)
[55]
  GI50: 3.18 µM (inactive)

## COc1ccc(Br)c(C(=O)N2CCc3ccccc32)c1N
[1]
  GI50: 27.5 µM (inactive)
[2]
  GI50: 63 µM (inactive)
[3]
  GI50: 42.4 µM (inactive)
[4]
  GI50: 58.6 µM (inactive)
[5]
  GI50: 46.2 µM (inactive)
[6]
  GI50: 32.3 µM (inactive)
[7]
  GI50: 36 µM (inactive)
[8]
  GI50: 15.7 µM (inactive)
[9]
  GI50: > 100 µM (inactive)
[10]
  GI50: 30.4 µM (inactive)
[11]
  GI50: 43.8 µM (inactive)
[12]
  GI50: 29.9 µM (inactive)
[13]
  GI50: 29.2 µM
[14]
  GI50: 52.7 µM (inactive)
[15]
  GI50: > 100 µM (inactive)
[16]
  GI50: 16.7 µM (inactive)
[17]
  GI50: 42.9 µM (inactive)
[18]
  GI50: 33.4 µM (inactive)
[19]
  GI50: 69.5 µM (inactive)
[20]
  GI50: 93.1 µM (inactive)
[56]
  GI50: 40.6 µM (inactive)
[22]
  GI50: 44.9 µM (inactive)
[23]
  GI50: 66.4 µM (inactive)
[25]
  GI50: 66.1 µM (inactive)
[26]
  GI50: 32.9 µM (inactive)
[27]
  GI50: 52 µM (inactive)
[57]
  GI50: 40.2 µM (inactive)
[28]
  GI50: 27.5 µM (inactive)
[29]
  GI50: > 100 µM (inactive)
[30]
  GI50: 20.3 µM (inactive)
[31]
  GI50: 33.9 µM (inactive)
[32]
  GI50: 47.9 µM (inactive)
[33]
  GI50: 49 µM (inactive)
[34]
  GI50: 70.5 µM (inactive)
[35]
  GI50: 49.1 µM (inactive)
[36]
  GI50: 41.8 µM (inactive)
[37]
  GI50: 26.9 µM (inactive)
[38]
  GI50: 42.9 µM (inactive)
[39]
  GI50: 34.2 µM (inactive)
[40]
  GI50: 34.8 µM (inactive)
[41]
  GI50: 30.5 µM (inactive)
[42]
  GI50: 55.2 µM (inactive)
[43]
  GI50: 31.9 µM (inactive)
[44]
  GI50: 45.6 µM (inactive)
[46]
  GI50: 42.2 µM (inactive)
[47]
  GI50: 25.1 µM (inactive)
[48]
  GI50: 40.6 µM (inactive)
[49]
  GI50: 31.3 µM (inactive)
[50]
  GI50: 33.8 µM (inactive)
[51]
  GI50: 59.6 µM (inactive)
[52]
  GI50: 30 µM (inactive)
[53]
  GI50: 42.3 µM (inactive)
[54]
  GI50: 59.8 µM (inactive)
[55]
  GI50: 30.2 µM (inactive)
